Series [1] is described as follows: Solubility of the single peptides in water and DMSO. As to conditions: single peptide. Type of series: physicochemical. The method, then: In the scope of the present invention peptides are characterised by their solubility. Peptides which are soluble in an aqueous solution less than 100 μg/ml are considered hydrophobic. On the other hand hydrophilic peptides dissolve in a buffered aqueous solution in concentration over 100 μg/ml. Hydrophilic peptides may further be divided into cationic (>20% basic amino acids including lysine, arginine, histidine), anionic (>20% acidic amino acids including aspartic acid, glutamic acid) and hydroxyl-rich peptides (>30% —OH containing amino acids like serine, threonine, tyrosine).
The peptide mixture contains 6 peptides (see table 1), which show a broad range of solubility. […] Peptides 1236, 1240, and 1242 can sequentially be dissolved in water, provided that the final pH is adjusted to pH 8.5. At lower pH a gel is formed presumably due to charge interactions and/or hydrogen bond formation. This gel can not be sterile filtered as it blocks the filter immediately. However, upon addition of poly-L-arginine (pR) to the aqueous solution of the three peptides a precipitate forms that makes sterile filtration of the solution impossible.
As with the formulation of example 1, for the manufacturing of a suspension formulation it is necessary first to dissolve peptides 83 and 84 in an aqueous buffer solution and peptides 87, 89, and 1426 in DMSO. After sterile filtration the solutions can be combined to form the final suspension.

The conditions of series [2]: suspension formulation stored at room temperature (Figure C).

Each structure is given as a SMILES string. Peptide text beside a SMILES is read from it.

Take `CC[C@H](C)[C@H](NC(=O)[C@H](CCC(N)=O)NC(=O)CNC(=O)CNC(=O)CNC(=O)[C@@H]1CCCN1C(=O)[C@H](Cc1ccccc1)NC(=O)[C@@H](N)CCCCN)C(=O)N[C@H](C(=O)NCC(=O)NCC(=O)N[C@H](C(=O)N[C@@H](Cc1ccc(O)cc1)C(=O)N[C@@H](CC(C)C)C(=O)N[C@@H](CC(C)C)C(=O)N1CCC[C@H]1C(=O)N[C@@H](CCCNC(=N)N)C(=O)N[C@@H](CCCNC(=N)N)C(=O)NCC(=O)N1CCC[C@H]1C(=O)N[C@@H](CCCNC(=N)N)C(=O)N[C@@H](CC(C)C)C(=O)O)C(C)C)C(C)C` [Peptide 83] (H-KFPGGGQIVGGVYLLPRRGPRL-OH; N-terminus and C-terminus assumed): in series [1], the “solubility in DMSO” value is listed as “soluble” and the solubility in water result was “soluble”. `CC(C)C[C@H](NC(=O)[C@@H](NC(=O)[C@H](CC(C)C)NC(=O)[C@@H](NC(=O)[C@H](CCCCN)NC(=O)[C@H](Cc1ccc(O)cc1)NC(=O)CN)C(C)C)C(C)C)C(=O)N[C@@H](CC(N)=O)C(=O)N1CCC[C@H]1C(=O)N[C@@H](CO)C(=O)N[C@H](C(=O)N[C@@H](C)C(=O)N[C@@H](C)C(=O)N[C@H](C(=O)O)[C@@H](C)O)C(C)C` [Peptide 84]: in series [1], the “solubility in DMSO” value is on record as “soluble” and the solubility in water result was “soluble”. Moreover, the solubility in water entry in series [1] (listed as Ipep 84) is “water soluble”. As for `CC[C@H](C)[C@H](NC(=O)[C@H](Cc1ccc(O)cc1)NC(=O)CNC(=O)[C@H](CCSC)NC(=O)[C@H](CC(C)C)NC(=O)[C@@H](N)CC(=O)O)C(=O)N1CCC[C@H]1C(=O)N[C@@H](C)C(=O)N[C@H](C(=O)O)C(C)C` [Peptide 87] (H-DLMGYIPAV-OH; N-terminus and C-terminus assumed), in series [1], the “solubility in DMSO” value is “dissolve easily in DMSO” and the solubility in water entry was “poorly water soluble”.

Take `CC[C@H](C)[C@H](N)C(=O)N[C@@H](CC(=O)O)C(=O)N[C@@H](CCC(=O)O)C(=O)N[C@@H](CC(C)C)C(=O)N[C@@H](CCCCN)C(=O)N[C@H](C(=O)N[C@@H](CC(N)=O)C(=O)N[C@@H](CO)C(=O)N[C@@H](CO)C(=O)N[C@@H](CC(C)C)C(=O)N[C@@H](CC(C)C)C(=O)N[C@H](C(=O)N[C@@H](CO)C(=O)N[C@H](C(=O)N[C@@H](CC(C)C)C(=O)N[C@H](C(=O)N[C@@H](Cc1ccc(O)cc1)C(=O)N[C@@H](Cc1c[nH]cn1)C(=O)N[C@H](C(=O)N[C@H](C(=O)O)C(C)C)C(C)C)[C@@H](C)O)[C@@H](C)CC)[C@@H](C)O)[C@@H](C)O` [Peptide 1235] (H-IDELKTNSSLLTSILTYHVV-OH; N-terminus and C-terminus assumed): in series [1], the “solubility in DMSO” value was “only dissolve in DMSO” and the solubility in water result was “hydrophobic”. The corresponding values for `CC[C@H](C)[C@H](NC(=O)[C@H](CC(N)=O)NC(=O)[C@@H](NC(=O)[C@@H](NC(=O)CNC(=O)[C@H](C)NC(=O)[C@H](C)NC(=O)[C@H](C)NC(=O)[C@H](CCC(N)=O)NC(=O)[C@H](C)NC(=O)[C@@H](NC(=O)CNC(=O)[C@H](C)NC(=O)CNC(=O)[C@H](CO)NC(=O)CNC(=O)[C@@H](N)[C@@H](C)O)[C@@H](C)CC)[C@@H](C)O)C(C)C)C(=O)O` [Peptide 1236] are “does not dissolve in DMSO” and “slowly dissolves in water”.

Turning to `CC[C@H](C)[C@H](NC(=O)[C@@H](NC(=O)[C@H](C)NC(=O)[C@@H](NC(=O)[C@H](CO)NC(=O)[C@H](CO)NC(=O)[C@H](CCCCN)NC(=O)[C@H](CC(C)C)NC(=O)[C@H](CC(=O)O)NC(=O)[C@H](CO)NC(=O)[C@@H](N)C(C)C)[C@@H](C)O)C(C)C)C(=O)N1CCC[C@H]1C(=O)NCC(=O)N[C@@H](Cc1ccc(O)cc1)C(=O)N1CCC[C@H]1C(=O)N[C@H](C(=O)N[C@@H](C)C(=O)NCC(=O)N[C@@H](CCC(N)=O)C(=O)N[C@H](C(=O)O)C(C)C)C(C)C` [Peptide 1240] (H-VSDLKSSTAVIPGYPVAGQV-OH; N-terminus and C-terminus assumed), in series [1], the “solubility in DMSO” value is given as “can also be dissolved in DMSO” and the solubility in water result is on record as “water soluble”. Turning to `CC(C)C[C@H](NC(=O)[C@H](Cc1ccccc1)NC(=O)[C@@H](N)CC(N)=O)C(=O)N[C@@H](CC(C)C)C(=O)N1CCC[C@H]1C(=O)N[C@@H](CC(=O)O)C(=O)N[C@@H](C)C(=O)N[C@@H](CCC(N)=O)C(=O)N[C@@H](C)C(=O)N[C@@H](C)C(=O)N[C@@H](C)C(=O)N[C@@H](C)C(=O)NCC(=O)N[C@@H](Cc1ccccc1)C(=O)N[C@@H](C)C(=O)N[C@@H](CO)C(=O)N[C@@H](CCCCN)C(=O)O` [Peptide 1241] (H-NFLLPDAQAAAAGFASK-OH; N-terminus and C-terminus assumed), in series [1], the “solubility in DMSO” value is given as “only dissolve in DMSO” and the solubility in water entry is “hydrophobic”. The corresponding values for `CC[C@H](C)[C@H](NC(=O)[C@H](CC(N)=O)NC(=O)[C@@H](NC(=O)[C@H](CC(N)=O)NC(=O)[C@@H](N)Cc1ccc(O)cc1)[C@@H](C)CC)C(=O)N[C@@H](CO)C(=O)N[C@@H](CC(C)C)C(=O)N1CCC[C@H]1C(=O)N[C@@H](CO)C(=O)N[C@@H](Cc1ccc(O)cc1)C(=O)N[C@@H](Cc1ccc(O)cc1)C(=O)N1CCC[C@H]1C(=O)N[C@@H](CC(=O)O)C(=O)N[C@@H](CCC(N)=O)C(=O)N[C@@H](CCCCN)C(=O)N[C@@H](CO)C(=O)N[C@@H](CC(C)C)C(=O)N[C@@H](CCC(=O)O)C(=O)N[C@@H](CC(N)=O)C(=O)N[C@@H](Cc1ccc(O)cc1)C(=O)O` [Peptide 1242] (H-YNINISLPSYYPDQKSLENY-OH; N-terminus and C-terminus assumed) are “can also be dissolved in DMSO” and “water soluble”. As for `CC[C@H](C)[C@H](NC(=O)CNC(=O)[C@H](CO)NC(=O)[C@@H](NC(=O)[C@H](Cc1ccccc1)NC(=O)[C@H](CC(N)=O)NC(=O)[C@H](Cc1c[nH]c2ccccc12)NC(=O)[C@H](CCSC)NC(=O)[C@@H](N)Cc1c[nH]cn1)[C@@H](C)CC)C(=O)N[C@@H](CCC(N)=O)C(=O)N[C@@H](Cc1ccc(O)cc1)C(=O)N[C@@H](CC(C)C)C(=O)N[C@@H](C)C(=O)NCC(=O)N[C@@H](CC(C)C)C(=O)N[C@@H](CO)C(=O)N[C@H](C(=O)N[C@@H](CC(C)C)C(=O)N1CCC[C@H]1C(=O)NCC(=O)N[C@@H](CC(N)=O)C(=O)N1CCC[C@H]1C(=O)N[C@@H](C)C(=O)O)[C@@H](C)O` [Peptide 1426] (H-HMWNFISGIQYLAGLSTLPGNPA-OH; N-terminus and C-terminus assumed), the “solubility in DMSO” value in series [1] is “only soluble in DMSO”. With `CC[C@H](C)[C@H](N)C(=O)NCC(=O)N[C@@H](CC(C)C)C(=O)NCC(=O)N[C@@H](CCCCN)C(=O)N[C@H](C(=O)N[C@@H](CC(C)C)C(=O)N[C@H](C(=O)N[C@@H](CC(=O)O)C(=O)N[C@H](C(=O)N[C@@H](CC(C)C)C(=O)N[C@@H](C)C(=O)NCC(=O)N[C@@H](Cc1ccc(O)cc1)C(=O)NCC(=O)N[C@@H](C)C(=O)NCC(=O)N[C@H](C(=O)N[C@@H](C)C(=O)NCC(=O)N[C@@H](C)C(=O)N[C@@H](CC(C)C)C(=O)N[C@H](C(=O)N[C@@H](C)C(=O)N[C@@H](Cc1ccccc1)C(=O)N[C@@H](CCCCN)C(=O)O)C(C)C)C(C)C)[C@@H](C)CC)C(C)C)C(C)C` [Peptide 1798] (H-IGLGKVLVDILAGYGAGVAGALVAFK-OH; N-terminus and C-terminus assumed), the solubility in water entry in series [1] is “water soluble on its own”.

Take `CC[C@H](C)[C@H](NC(=O)[C@H](CCC(N)=O)NC(=O)CNC(=O)CNC(=O)CNC(=O)[C@@H]1CCCN1C(=O)[C@H](Cc1ccccc1)NC(=O)[C@@H](N)CCCCN)C(=O)N[C@H](C(=O)NCC(=O)NCC(=O)N[C@H](C(=O)N[C@@H](Cc1ccc(O)cc1)C(=O)N[C@@H](CC(C)C)C(=O)N[C@@H](CC(C)C)C(=O)N1CCC[C@H]1C(=O)N[C@@H](CCCNC(=N)N)C(=O)N[C@@H](CCCNC(=N)N)C(=O)NCC(=O)N1CCC[C@H]1C(=O)N[C@@H](CCCNC(=N)N)C(=O)N[C@@H](CC(C)C)C(=O)NCC(=O)N[C@H](C(=O)N[C@@H](CCCNC(=N)N)C(=O)N[C@@H](C)C(=O)N[C@H](C(=O)N[C@@H](CCCNC(=N)N)C(=O)N[C@@H](CCCCN)C(=O)O)[C@@H](C)O)C(C)C)C(C)C)C(C)C` [Peptide 1835] (H-KFPGGGQIVGGVYLLPRRGPRLGVRATRK-OH; N-terminus and C-terminus assumed): the solubility in water entry in series [1] is “water soluble”. In the case of `CC[C@H](C)[C@H](NC(=O)[C@@H](NC(=O)[C@H](Cc1ccccc1)NC(=O)[C@H](CC(N)=O)NC(=O)[C@@H](NC(=O)[C@@H](NC(=O)[C@H](CS)NC(=O)[C@@H]1CCCN1C(=O)[C@H](Cc1ccc(O)cc1)NC(=O)[C@H](Cc1c[nH]cn1)NC(=O)[C@H](Cc1c[nH]c2ccccc12)NC(=O)[C@H](CC(C)C)NC(=O)[C@H](CCCNC(=N)N)NC(=O)[C@H](Cc1ccc(O)cc1)NC(=O)[C@@H]1CCCN1C(=O)[C@H](Cc1ccc(O)cc1)NC(=O)[C@@H](N)CC(=O)O)[C@@H](C)O)C(C)C)[C@@H](C)O)C(=O)N[C@@H](Cc1ccccc1)C(=O)N[C@@H](CCCCN)C(=O)N[C@H](C(=O)O)C(C)C` [Peptide 1846] (H-DYPYRLWHYPCTVNFTIFKV-OH; N-terminus and C-terminus assumed), in series [2], the degradation result is recorded as “oxidation of Ipep 1846 to its dimer”.

These data come from patent US20080145383A1, “Method for Solubilizing Peptide Mixtures” (priority 2004, published 2008).
